Laboratory results taken from patent US20210247277A1, “Pretreatment Method for Fluorescent Image Diagnosis” (Goryo Chemical, Inc., priority 2018, published 2021).

Assays:
[1] = Fluorescence intensity of the probe and of its fluorescent product at each pH; type: physicochemical; details: dependence on pH
Experimental: (§1) Cells cultured on glass surface were reacted with gGlu-HMRG, and fluorescence intensity was compared. HeLa cells were inoculated at the same density to chambers of a 4-chamber glass bottom dish. The cells were cultured in DMEM+8% FBS, P.S. under conditions of 37° C. and 5% CO2 for approximately 8 hours. The cells were rinsed three times with PBS(−) adjusted to pH 6.5, 7.3, or 7.8, which was then replaced with each solution supplemented with 2 μM gGlu-HMRG. The cells were stained at 37° C. under 5% CO2 for 20 minutes and observed under a fluorescence microscope under the same conditions as above without the solution replaced. 100 ms exposure, gain 5 Int 5, ND1. Fluorescence intensity from 5 cells in fluorescence images, and background fluorescence intensity were measured with reference to superimposed images with DIC, and the mean and standard deviation were plotted. The fluorescence intensity of gGlu-HMRG and the fluorescence intensity of HMRG (fluorescent substance after reaction with GGT) were measured at each pH.

A549 cell spheroid = assay: Quantification of probe reaction and penetration in A549 cell spheroid (fluorescence intensity by depth); type: cell-based, human
Experimental: (§2) FIG. 4 illustrates a method for analyzing the penetration or reaction of reagents into or with the spheroid. When “Depth” shown in FIGS. 5 to 10 was, for example, 200 μm, the fluorescence intensity of an open region in the illustration was determined from fluorescence intensity observed by fluorescence microscope, wherein the open region has the inside circle at 200 μm inside from the outer periphery and has the outside circle at 100 μm outside from the aforementioned inside circle as shown in the drawing.
(§3) HeLa cells (human uterine cervical cancer cell line) or A549 cells (human alveolar basal epithelial adenocarcinoma cell line) were inoculated at 1×10^4 cells to Nunclon Sphera and cultured for 7 to 14 days. Each obtained spheroid was allowed to adhere to a poly-L-lysine-coated glass bottom dish over approximately 24 hours. The medium was replaced with a buffer, and the spheroid was incubated at room temperature for 10 minutes (impregnation, rinse). The buffer in the dish was replaced with each buffer containing gGlu-HMRG dissolved to attain a final concentration of 0.1 μM (A549 cells) or 1 μM (HeLa cells), followed by observation under a fluorescence microscope (Leica DMI 6000 CS, lens: 10×, filter Leica L5, ex. 460 to 500 nm, em. 512 to 542 nm). An area (ROI) having the distance from surface shown in FIG. 4 was captured with ImageJ, and increase in the average luminance between the start of measurement and 5 minutes later was analyzed. Fluorescence was also observed by impregnating with saline and addition of gGlu-HMRG dissolved in PBS(−).
(§4) The buffers used and their composition are as follows.
(§5) PBS(−): 140 mM NaCl, 2.7 mM KCl, 10 mM PO4^3− (pH=7.4) PBS(+): PBS(−) described above as well as 0.90 mM CaCl2, 0.33 mM MgCl2 (pH=7.4) PBS−Ca: PBS(−) described above as well as 0.90 mM CaCl2 (pH=7.4) PBS−Mg: PBS(−) described above as well as 0.33 mM MgCl2 (pH=7.4) PBS−EDTA: PBS(−) described above as well as 0.2 mM EDTA (pH=7.4)
(§6) To evaluate the influence of divalent ion (calcium, etc.)-dependent adhesion, fluorescence was observed under the same conditions as in Example 3 except that the following buffers were used.
(§7) (1) No pretreatment (no rinse) and impregnation with a solution of gGlu-HMRG dissolved in PBS(−) (2) Pretreatment by Impregnating with PBS(−) (3) Pretreatment by Impregnating with PBS(+) (4) Pretreatment by impregnating with PBS(−)+0.2 mM EDTA
Fluorescence was measured by the same method as in Example 3 except that a 5 μM FeRhoNox-1 probe was used instead of gGlu-HMRG as the fluorescent probe. The cells used were only A549 cells.

[2] = system: lymph nodes including sentinel lymph node (breast cancer metastasis); assay: Fluorescence increase in lymph node clinical specimens resected during breast cancer surgery; details: 50 μM in PBS
Experimental: After pretreatment of lymph node specimens resected during breast cancer surgery in PBS(−) for 0 minutes, 1 minute, 5 minutes, 10 minutes or an appropriate course of time, increases of fluorescence at 10 minutes after impregnation with a 50 μM gGlu-HMRG solution from that immediately after the impregnation are shown. A specimen diagnosed with cancer metastasis in pathological diagnosis is indicated by a filled circle, and a specimen confirmed to have no cancer metastasis is indicated by an open triangle.
Lymph nodes including sentinel lymph node excised for the purpose of pathological diagnosis during breast cancer surgery were divided and transported from the operating room to an inspection room in a state wrapped in gauze wetted with PBS. A reagent and PBS (140 mM NaCl, 2.7 mM KCl, 10 mM PO4^3−, pH=7.4) at room temperature were used. A PBS impregnated sample was impregnated with a container where PBS was placed, and continuously impregnated for 1 minute, 5 minutes, 10 minutes, or an appropriate course of time from 1 minute to 30 minutes. A PBS non-impregnated sample was stored in state wrapped in gauze wetted with PBS to prevent drying out, instead of being impregnated with PBS, and used in fluorescence measurement. The lymph nodes were carefully taken out with tweezers and put on a Petri dish, and visible images of autofluorescence were taken in a fluorescence measuring machine. 50 μM gGlu-HMRG dissolved in PBS was added to the Petri dish where the lymph nodes were placed, until the lymph nodes completely soaked therein. The fluorescence measurement was continued. The pathological diagnosis of the specimens used in this test was also conducted and checked against final results about whether cancer metastasized to each lymph node.
The fluorescence intensity was indicated by a ratio to the fluorescence intensity of a fluorescence intensity reference plate having a constant fluorescence intensity (measured fluorescence intensity/fluorescence intensity of the fluorescence intensity reference plate).

HeLa cells spheroid = assay: Time-dependent fluorescence intensity in HeLa cell spheroid (fluorescence microscope); type: cell-based, human; details: 1 μM; washed with HBSS and probe in HBSS, compared with PBS(−) 10 min and probe in PBS(−)
Experimental: Time-dependent changes in fluorescence intensity are shown for a HeLa cells spheroid which was washed with HBSS and then impregnated with a 1 μM solution of gGlu-HMRG dissolved in HBSS (upper), and for a HeLa cells spheroid which was impregnated with PBS(−) for 10 minutes and then impregnated with a 1 μM solution of gGlu-HMRG dissolved in PBS(−) (lower).
HeLa cells were inoculated at 10^5 cells/well and cultured for 4 to 6 days. The obtained spheroid was put on a glass bottom dish and cultured for about 3 hours. Then, the culture solution was removed, and the spheroid was impregnated with PBS(−) for 10 minutes. A control was washed with HBSS without being impregnated with PBS(−). A 1 μM solution of gGlu-HMRG dissolved in PBS(−) or HBSS was added to the spheroid impregnated with PBS(−) or the control spheroid. Each spheroid immediately (0 minutes), 10 minutes, 20 minutes, 30 minutes, and 60 minutes after addition of the gGlu-HMRG solution was photographed under a fluorescence microscope (Leica DMI 6000 CS, lens: 10×, filter Leica L5, excitation wavelength: 460 to 500 nm, fluorescence wavelength: 512 to 542 nm). Transmitted light images of the spheroid were taken 10 minutes after impregnated with PBS(−).

HeLa cell spheroid = assay: Quantification of probe reaction and penetration in HeLa cell spheroid (fluorescence intensity by depth); type: cell-based, human
Experimental: as §2
as §3, with “The buffer in the dish was replaced with each buffer containing gGlu-HMRG dissolved to attain a final concentration of 0.1 μM (A549 cells) or 1 μM (HeLa cells), followed by observation under a fluorescence microscope (Leica DMI 6000 CS, lens: 10×, filter Leica L5, ex. 460 to 500 nm, em. 512 to 542 nm).” left out
as §4, §5, §6, §7

HeLa cells = assay: Influence of pH on fluorescence of HeLa cells cultured on glass surface; type: cell-based, human; details: 2 μM, 20 minutes, 37° C.
Experimental: as §1

[3] = PBS(−) + 0.2 mM EDTA, compared with PBS(−)

## Nc1ccc2c(c1)Oc1cc(N)ccc1C21OCc2ccccc21 [HMRG]
[1]
  Fluorescence intensity at each pH: decreased with the elevation of pH

## FeRhoNox-1
A549 cell spheroid; 5 μM probe, PBS−, PBS+, PBS+Ca or PBS+EDTA 10 min
  Fluorescence intensity distribution by pretreatment solution, 5 minutes: same tendency as that obtained using gGlu-HMRG

## Nc1ccc2c(c1)Oc1cc(NC(=O)CC[C@H](N)C(=O)O)ccc1C21OCc2ccccc21 (stereo partly shown) [gGlu-HMRG]
[2]; 5 specimens confirmed to have no cancer metastasis in pathological diagnosis
  Increase in fluorescence intensity in the lymph nodes 10 minutes after the start of measurement: little fluorescence increase
[2]; some specimens confirmed to have cancer, without impregnation with PBS
  Increase in fluorescence intensity in the lymph nodes 10 minutes after the start of measurement: only weak fluorescence
[2]; specimens confirmed to have cancer, impregnated with PBS (regardless of impregnating time)
  Increase in fluorescence intensity in the lymph nodes 10 minutes after the start of measurement: strong fluorescence
HeLa cells spheroid
  Increase of fluorescence in the spheroid over 0-60 minutes: slower increase of fluorescence in the central portion of the spheroid
HeLa cell spheroid; [3]
  Increase of fluorescence by distance from surface, 5 minutes: further accelerated the increase of fluorescence
HeLa cell spheroid; PBS(−) impregnation 10 minutes, probe in PBS(−), compared with HBSS without wash
  Increase of fluorescence by distance from surface, 5 minutes: increase of fluorescence was mora rapid
HeLa cell spheroid; PBS(−) impregnation compared with no impregnation or PBS(+)
  Increase of fluorescence by distance from surface, 5 minutes: accelerated the increase of fluorescence at a location distant from surface
HeLa cell spheroid; probe in HBSS, no buffer wash, 1 μM, 50 μM (FIG. 5 legend)
  Increase of fluorescence by distance from surface, 5 minutes: increase of fluorescence was slowed with the increasing distance from surface
A549 cell spheroid; PBS(+) impregnation
  Increase rate of fluorescence, 5 minutes: almost equivalent to that of no impregnation
A549 cell spheroid; [3]
  Increase of fluorescence intensity by depth, 5 minutes: larger increase of fluorescence intensity at a site deeper from surface
A549 cell spheroid; PBS(−) impregnating treatment 10 min compared with PBS(+), 0.1 μM, 50 μM (FIG. 6 legend)
  Increase rate of fluorescence intensity, 5 minutes: accelerated the increase rate of fluorescence intensity
A549 cell spheroid; PBS−Ca (PBS(−) + 0.90 mM CaCl2) 10 min, as in PBS(+)
  Increase rate of fluorescence intensity, 5 minutes: less increased fluorescence
A549 cell spheroid; PBS−Mg (PBS(−) + 0.33 mM MgCl2) 10 min
  Increase rate of fluorescence intensity, 5 minutes: Substantially the same results as those of PBS(−)
A549 cell spheroid; saline (154 mM NaCl) 10 min
  Increase of fluorescence intensity, 5 minutes: increase of fluorescence intensity was slow
HeLa cells; PBS(−) at lower pH (pH 6.5, 7.3, 7.8 tested)
  Fluorescence intensity of cells and background: lower pH decreased a signal and increased a background
HeLa cells; PBS(−) at pH of 7.3 or higher
  Fluorescence intensity of cells: increased signal intensity
[1]
  Fluorescence intensity at each pH: decreased with the elevation of pH
